Reference: ChEMBL document CHEMBL5528082 (J Med Chem, 2024)
In brackets after ≈: the same amount, converted by molar mass. Activity calls are given as the source filed them. The calls are words filed in the database; no cut-off is given here.

Key:
Dihydrofolate reductase [1] = target: T1, Dihydrofolate reductase (Homo sapiens, UniProt P00374); experiment: Inhibition of human DHFR
T1 sequence (P00374 whole entry): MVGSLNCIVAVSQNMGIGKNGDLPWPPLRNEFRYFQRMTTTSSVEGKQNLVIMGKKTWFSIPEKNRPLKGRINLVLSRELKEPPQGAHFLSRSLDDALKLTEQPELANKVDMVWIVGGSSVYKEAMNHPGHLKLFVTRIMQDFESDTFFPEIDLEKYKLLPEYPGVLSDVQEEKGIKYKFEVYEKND

Staphylococcus aureus [2] = experiment: Antibacterial activity against Staphylococcus aureus ATCC 25923 incubated for 24 hrs by CLSI based broth microdilution assay; format: functional
Staphylococcus aureus [3] = experiment: Antibacterial activity against TMP-resistant Staphylococcus aureus BHKS 721 incubated for 24 hrs by CLSI based broth microdilution assay; format: functional
Staphylococcus aureus [4] = experiment: Antibacterial activity against TMP-resistant Staphylococcus aureus BHKS 723 incubated for 24 hrs by CLSI based broth microdilution assay; format: functional
[5] = Cytotoxicity against HEK293 cells assessed as inhibition rate of cell growth at 100 uM incubated for 24 hrs by CCK8 assay relative to control; format: toxicity, cell-based; conditions: human
Dihydrofolate reductase [6] = target: T2, Dihydrofolate reductase (Staphylococcus aureus, UniProt P0A017); experiment: Inhibition of Staphylococcus aureus DHFR expressed in Escherichia coli BL21 (DE3) using DHF as substrate preincubated for 10 mins followed by substrate addition measured for 10 mins in presence of NADPH by spectrophotometry
T2 sequence (P0A017 whole entry): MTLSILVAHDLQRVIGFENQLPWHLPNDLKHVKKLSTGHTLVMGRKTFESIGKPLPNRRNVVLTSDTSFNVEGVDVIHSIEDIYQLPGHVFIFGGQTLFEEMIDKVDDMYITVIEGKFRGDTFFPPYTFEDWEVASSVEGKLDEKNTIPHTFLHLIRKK

Staphylococcus aureus [7] = experiment: Bactericidal activity against Staphylococcus aureus ATCC 25923 assessed as bacterial growth suppression measured for 24 hrs by time kill assay; format: functional, organism-based
[8] = Acute toxicity in C57 mouse assessed as animal death at 800 mg/kg, po measured after 1 week; format: organism-based; conditions: in vivo, 168 h, time 1 weeks
[9] = Acute toxicity in C57 mouse assessed as body weight loss at 400 to 800 mg/kg, po measured for 2 days; format: organism-based; conditions: in vivo, 48 h, dose 400-800 mg/kg, time 2 day
[10] = Acute toxicity in C57 mouse assessed as body weight loss at 400 to 800 mg/kg, po measured for 4 days; format: organism-based; conditions: in vivo, 96 h, dose 400-800 mg/kg, time 4 day
[11] = Acute toxicity in C57 mouse assessed as liver inflammation at 800 mg/kg, po measured after 1 week by biochemical analysis; format: organism-based; conditions: in vivo, 168 h, time 1 weeks
[12] = Acute toxicity in C57 mouse assessed as damage in heart at 800 mg/kg, po measured after 1 week by H and E staining based analysis; format: organism-based; conditions: in vivo, 168 h, time 1 weeks
[13] = Acute toxicity in C57 mouse assessed as damage in spleen at 800 mg/kg, po measured after 1 week by H and E staining based analysis; format: organism-based; conditions: in vivo, 168 h, time 1 weeks
[14] = Acute toxicity in C57 mouse assessed as damage in kidney at 800 mg/kg, po measured after 1 week by H and E staining based analysis; format: organism-based; conditions: in vivo, 168 h, time 1 weeks
[15] = Acute toxicity in C57 mouse assessed as damage in lung at 800 mg/kg, po measured after 1 week by H and E staining based analysis; format: organism-based; conditions: in vivo, 168 h, time 1 weeks
[16] = Metabolic stability in human liver microsomes assessed as half life at 3 uM measured for 120 mins by LC-MS/MS analysis; format: ADME, Microsome; conditions: 2 h
[17] = Metabolic stability in human liver microsomes assessed as clearance rate at 3 uM measured for 120 mins by LC-MS/MS analysis; format: ADME, Microsome; conditions: 2 h
[18] = Metabolic stability in mouse liver microsomes assessed as half life at 3 uM measured for 120 mins by LC-MS/MS analysis; format: ADME, Microsome; conditions: 2 h
[19] = Metabolic stability in mouse liver microsomes assessed as clearance rate at 3 uM measured for 120 mins by LC-MS/MS analysis; format: ADME, Microsome; conditions: 2 h
[20] = Cmax in Sprague-Dawley rat at 5 mg/kg, iv measured for 24 hrs by LC/MS analysis; format: ADME, organism-based; conditions: in vivo
[21] = Tmax in Sprague-Dawley rat at 5 mg/kg, iv measured for 24 hrs by LC/MS analysis; format: ADME, organism-based; conditions: in vivo
[22] = Clearance in Sprague-Dawley rat at 5 mg/kg, iv measured for 24 hrs by LC/MS analysis; format: ADME, organism-based; conditions: in vivo
[23] = AUC (0 to t) in Sprague-Dawley rat at 5 mg/kg, iv measured for 24 hrs by LC/MS analysis; format: ADME, organism-based; conditions: in vivo
[24] = Tmax in Sprague-Dawley rat at 15 mg/kg, po measured for 24 hrs by LC/MS analysis; format: ADME, organism-based; conditions: in vivo
[25] = Oral bioavailability in Sprague-Dawley rat at 15 mg/kg measured for 24 hrs by LC/MS analysis; format: ADME, organism-based; conditions: in vivo
Staphylococcus aureus [26] = experiment: Antibacterial activity against methicillin-resistant Staphylococcus aureus ATCC 33591 infected in C57 mouse model assessed as wound healing at 2 to 10 mg/kg administered once a day for 3 days consecutively and measured after 24 hrs post-last dose; format: functional, organism-based; conditions: dose 2-10 mg/kg, time 4.0 day
Staphylococcus aureus [27] = experiment: Antibacterial activity against methicillin-resistant Staphylococcus aureus ATCC 33591 infected in C57 mouse model assessed as decrease in pathological change at 2 to 10 mg/kg administered once a day for 3 days consecutively and measured after 24 hrs post-last dose by H and E staining based analysis; format: functional, organism-based; conditions: dose 2-10 mg/kg, time 4.0 day
Staphylococcus aureus [28] = experiment: Antibacterial activity against methicillin-resistant Staphylococcus aureus ATCC 33591 infected in C57 mouse model assessed as clear skin structure at 2 to 10 mg/kg administered once a day for 3 days consecutively and measured after 24 hrs post-last dose by H and E staining based analysis; format: functional, organism-based; conditions: dose 2-10 mg/kg, time 4.0 day
Mus musculus = experiment: Induction of inflammatory cell infiltration in C57 mouse model infected with methicillin-resistant Staphylococcus aureus ATCC 33591 at 2 to 10 mg/kg administered once a day for 3 days consecutively and measured after 24 hrs post-last dose by H and E staining based analysis; format: functional, organism-based; conditions: dose 2-10 mg/kg, time 4.0 day
Dihydrofolate reductase [29] = target: T2, Dihydrofolate reductase; experiment: Binding affinity to Staphylococcus aureus DHFR expressed in Escherichia coli BL21 (DE3) assessed dissociation constant by ITC analysis
Staphylococcus aureus [30] = experiment: Synergistic antibacterial activity against Staphylococcus aureus ATCC 25923 assessed as fractional inhibitory concentration index incubated for 24 hrs in presence of SMX by CLSI based broth microdilution assay; format: functional
Staphylococcus aureus [31] = experiment: Synergistic antibacterial activity against Staphylococcus aureus USA 300 assessed as fractional inhibitory concentration index incubated for 24 hrs in presence of SMX by CLSI based broth microdilution assay; format: functional
Staphylococcus aureus [32] = experiment: Synergistic antibacterial activity against TMP-resistant Staphylococcus aureus BHKS 227 assessed as fractional inhibitory concentration index incubated for 24 hrs in presence of SMX by CLSI based broth microdilution assay; format: functional
Staphylococcus aureus [33] = experiment: Synergistic antibacterial activity against TMP-resistant Staphylococcus aureus BHKS 723 assessed as fractional inhibitory concentration index incubated for 24 hrs in presence of SMX by CLSI based broth microdilution assay; format: functional
Staphylococcus aureus [34] = experiment: Synergistic antibacterial activity against TMP-resistant Staphylococcus aureus BHKS 231 assessed as fractional inhibitory concentration index incubated for 24 hrs in presence of SMX by CLSI based broth microdilution assay; format: functional
Staphylococcus aureus [35] = experiment: Antibacterial activity against TMP-resistant Staphylococcus aureus BHKS 231 incubated for 24 hrs by CLSI based broth microdilution assay; format: functional
[36] = target: Dihydrofolate reductase (Staphylococcus aureus) (UniProt P0A017); conditions: dose 10.0 µM, time 10.0 min
Sequence of Dihydrofolate reductase (Staphylococcus aureus) (P0A017 2-159 limits assumed): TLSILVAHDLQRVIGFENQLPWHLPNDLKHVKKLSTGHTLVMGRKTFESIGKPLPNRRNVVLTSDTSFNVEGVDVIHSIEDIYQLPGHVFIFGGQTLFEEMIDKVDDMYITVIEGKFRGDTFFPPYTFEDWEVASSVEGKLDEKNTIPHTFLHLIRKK

Compound: CC(C)c1cc(OCC2CC2)c(I)cc1Oc1cnc(N)nc1N
- IC50 (Dihydrofolate reductase [1]): 4.19 µM
- MIC (Staphylococcus aureus [2]): 0.031 µg/mL (≈ 0.0704 µM)
- MIC (Staphylococcus aureus [3]): 4 µg/mL (≈ 9.09 µM)
- MIC (Staphylococcus aureus [4]): 2 µg/mL (≈ 4.54 µM)
- inhibition at 24 h, 100 µM [5]: 59.1%
- IC50 (Dihydrofolate reductase [6]): 0.00097 µM
- Activity (Staphylococcus aureus [7]): Dose-Dependent Effect
- Activity [8]: Non-Toxic
- Activity [9]: Toxic
- Activity [10]: Non-Toxic
- Activity [11]: Toxic
- Activity [12]: Non-Toxic
- Activity [13]: Non-Toxic
- Activity [14]: Non-Toxic
- Activity [15]: Non-Toxic
- t1/2 [16]: 146.1 min
- CLH [17]: 0.7 µL/min/mg
- t1/2 [18]: 26.2 min
- CLH [19]: 4.1 µL/min/mg
- Cmax [20]: 4060 ng/mL
- Tmax [21]: 4.8 min
- clearance [22]: 25 mL/min/kg
- AUC(0-t) at 24 h [23]: 3240 ng·h/mL
- Tmax [24]: 79.8 min
- bioavailability [25]: 40.7%
- Activity (Staphylococcus aureus [26]): Active
- Activity (Staphylococcus aureus [27]): Active
- Activity (Staphylococcus aureus [28]): Active
- Activity (Mus musculus): Active
- Kd (Dihydrofolate reductase [29]): 1.54 µM
- fractional inhibitory concentration index (FICI) (Staphylococcus aureus [30]): 0.066
- fractional inhibitory concentration index (FICI) (Staphylococcus aureus [31]): 0.022
- fractional inhibitory concentration index (FICI) (Staphylococcus aureus [32]): 0.27
- fractional inhibitory concentration index (FICI) (Staphylococcus aureus [33]): 0.156
- fractional inhibitory concentration index (FICI) (Staphylococcus aureus [34]): 1
- MIC (Staphylococcus aureus [35]): 32 µg/mL (≈ 72.7 µM)
- ΔTm [36]: 18 °C
